Results published in patent US12617795B2, “Substituted 6,7-dihydro-5H-pyrrolo[3,4-d]pyrimidines, 5,7-dihydrofuro[3,4-d]pyrimidines, and pyrido[2,3-d]pyrimidines as KCC2 modulators” (Astrazeneca AB, priority 2020, dated 2026).

These compounds were tested against T1, KCC2 (Homo sapiens, UniProt Q9H2X9) (assay: KCC2 thallium transport FLIPR-based assay (Tl+ influx in HEK293 cells expressing KCC2)). Conditions: 90 min compound incubation at RT, thallium flux at 120 s used to determine EC50.
T1 construct: expressed in transfected cells; host or cells: HEK293 cells electroporated (Maxcyte STX) with the pcDNA3.1 KCC2 plasmid
T1 sequence (Q9H2X9 1-1139): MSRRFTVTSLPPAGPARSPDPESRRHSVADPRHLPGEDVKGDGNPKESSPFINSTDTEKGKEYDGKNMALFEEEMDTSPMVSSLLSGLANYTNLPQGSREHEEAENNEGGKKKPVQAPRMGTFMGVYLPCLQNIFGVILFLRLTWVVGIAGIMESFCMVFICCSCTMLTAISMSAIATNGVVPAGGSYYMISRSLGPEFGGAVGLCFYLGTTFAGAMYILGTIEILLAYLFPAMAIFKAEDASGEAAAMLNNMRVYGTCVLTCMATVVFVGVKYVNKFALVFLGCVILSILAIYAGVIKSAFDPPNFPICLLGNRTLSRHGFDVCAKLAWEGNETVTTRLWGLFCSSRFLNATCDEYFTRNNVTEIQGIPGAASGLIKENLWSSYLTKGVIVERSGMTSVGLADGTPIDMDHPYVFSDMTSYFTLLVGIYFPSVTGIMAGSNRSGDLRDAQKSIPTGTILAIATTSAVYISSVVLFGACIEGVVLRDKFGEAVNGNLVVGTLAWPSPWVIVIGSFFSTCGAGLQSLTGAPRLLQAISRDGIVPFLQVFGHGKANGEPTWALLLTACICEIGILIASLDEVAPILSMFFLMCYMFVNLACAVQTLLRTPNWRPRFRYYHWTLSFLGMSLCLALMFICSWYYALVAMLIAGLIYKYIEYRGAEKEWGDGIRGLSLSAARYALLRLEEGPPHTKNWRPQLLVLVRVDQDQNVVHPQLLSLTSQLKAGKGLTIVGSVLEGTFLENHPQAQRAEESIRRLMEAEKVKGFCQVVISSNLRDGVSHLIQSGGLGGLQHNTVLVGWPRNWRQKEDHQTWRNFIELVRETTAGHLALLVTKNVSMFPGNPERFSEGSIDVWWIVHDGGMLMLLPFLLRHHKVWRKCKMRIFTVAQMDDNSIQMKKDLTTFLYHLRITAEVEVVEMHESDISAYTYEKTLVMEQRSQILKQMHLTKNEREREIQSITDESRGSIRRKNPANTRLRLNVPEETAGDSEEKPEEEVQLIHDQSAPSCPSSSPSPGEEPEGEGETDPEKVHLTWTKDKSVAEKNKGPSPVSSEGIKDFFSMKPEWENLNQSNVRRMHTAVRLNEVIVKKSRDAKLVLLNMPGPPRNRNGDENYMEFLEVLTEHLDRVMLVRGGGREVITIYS
Assay type: cell-based
Description: A thallium transport FLIPR-based assay was used to measure the ability of compounds to activate KCC2. KCC2 activity is assessed by measuring KCC2-dependent Tl^+ influx in a KCC2-expressing cell. The assay protocol was based on those described by Delpire et al (Proc Natl Acad Sci USA. 2009 Mar. 31; 106(13): 5383-5388) and Zhang et al (Journal of Biomolecular Screening 15(2): 2010).
KCC2 was synthesised and codon optimised by GeneArt based on the Uniprot sequence Q9H2X9. The final sequence was subcloned into pcDNA3.1.
HEK293 cells were grown in 10 layer cell stacks at 37° C., 5% CO2, in DMEM, 10% fetal calf serum and 2 mM Glutamine. The cells were detached by removing the media and washing the cell stack with 100 ml of PBS. The PBS was removed and 100 ml of 1× TrypLE was added and the cell stack returned to 37° C. for 5 min. The detached cells were then counted in a Vi Cell counter and spun for 10 min at 1250 rpm in a Sorval Legend centrifuge. The cells were diluted down in Maxcyte electroporation buffer at 4× the final concentration and spun as before. The cell pellet was resuspended at 1×10^8/cells per ml and electroporated in a Maxcyte Cl 2.2 bag on a Maxcyte STX machine via the HEK293 programme with 200 ug/ml of plasmid DNA. The cells were then allowed to recover for 30 min before adding to 500 ml of PBS and then counted again on the Vi Cell. The cells were then frozen down in planer controlled rate freeze in 90% complete media, 10% DMSO.
All reagents were dispensed using a Mulitdrop Combi unless stated otherwise. All FluXOR Invitrogen propriety buffer compositions are mentioned in tables below.
HEK293 KCC2 cells were harvested at a density of 3.33×10^5 cells/mL in complete media (DMEM, Sigma, D6546, 10% fetal calf serum and 1% Glutamax) and 30 μL per well seeded into 384-well PDL coated black-clear plates (Corning, 354663). Leave cells at RT for 20 mins to settle before incubating for 48 h at 37° C., 5% CO2. Following incubation, perform three wash steps in HBSS (Sigma, H6648) using a Biotek cell washer with the final aspiration leaving 20 μL HBSS residual volume in each well. A further 20 μL per well of thallium loading dye is then added (1 h, RT, protect from light). 5 μL of test compounds (100 μM top concentration, 1:2 dilutions, 12 point curve) were added using the FLIPR TETRA and incubated at RT for 90 min in the dark. Following compound incubation, the thallium flux response is read on FLIPR TETRA (ex. 515-575 nm) which is initiated by FLIRR TETRA dispensing 5 μL stimulus buffer into each well. Recordings are measured every 1 second for 120 seconds. Thallium flux at 120 s used to determine EC50.
Compound buffer: Assay buffer with 1 μL of bumetanide per 10 ml.

EC50 | Structure (SMILES)
2.29 µM | CC(C)N1Cc2c(Nc3ccc(-c4ccccc4)c(F)c3)nc(C3=CCOCC3)nc2C1=O [Example 82, 2-(3,6-dihydro-2H-pyran-4-yl)-4-((2-fluoro-[1,1′-biphenyl]-4-yl)amino)-6-isopropyl-5,6-dihydro-7H-pyrrolo[3,4-d]pyrimidin-7-one]
3.6 µM | CC(C)N1Cc2c(Nc3ccc(OCc4ccccc4)cc3)nc(N3CCO[C@H](C)C3)nc2C1=O [Example 57, 4-[(4-(benzyloxy)phenyl]amino}-2-[(2R)-2-methylmorpholin-4-yl]-6-(propan-2-yl)-5,6-dihydro-7H-pyrrolo[3,4-d]pyrimidin-7-one]
1.17 µM | NC(=O)c1cnc2nc(N3CCOC(C4CC4)C3)nc(Nc3ccc(C4CCCCC4)cc3)c2c1 (centres unmarked) [Example 105, 4-((4-cyclohexylphenyl)amino)-2-(2-cyclopropylmorpholino) pyrido[2,3-d]pyrimidine-6-carboxamide]
1.85 µM | COc1cnc2nc(N3CCO[C@H](C)C3)nc(Nc3ccc(C4CCCCC4)cc3)c2c1 [Example 106, (R)—N-(4-cyclohexylphenyl)-6-methoxy-2-(2-methylmorpholino) pyrido[2,3-d]pyrimidin-4-amine]
0.146 µM | C#CCCCCCOc1ccc(-c2ccc(Nc3nc(N4CCOC(C5CC5)C4)nc4c3CN(C(C)C)C4=O)cc2)cc1 (centres unmarked) [Example 52, 2-(2-cyclopropylmorpholin-4-yl)-4-({4′-[(hept-6-yn-1-yl)oxy][1,1′-biphenyl]-4-yl}amino)-6-(propan-2-yl)-5,6-dihydro-7H-pyrrolo[3,4-d]pyrimidin-7-one]
4.89 µM | CC(C)N1Cc2c(Nc3ccc(C4CCCCC4)cc3)nc(N3CCOCC3CO)nc2C1=O (centres unmarked) [Example 32, 4-[(4-cyclohexylphenyl)amino]-2-[3-(hydroxymethyl)morpholin-4-yl]-6-(propan-2-yl)-5,6-dihydro-7H-pyrrolo[3,4-d]pyrimidin-7-one]
3.22 µM | Cc1cc(-c2nc3c(c(Nc4ccc(C5CCCCC5)cc4)n2)COC3)ccn1 [Example 95, N-(4-cyclohexylphenyl)-2-(2-methylpyridin-4-yl)-5,7-dihydrofuro[3,4-d]pyrimidin-4-amine]
5.66 µM | CC(C)Oc1ccc(Nc2nc(N3CCOC(C4CC4)C3)nc3c2CN(C(C)C)C3=O)cc1 (centres unmarked) [Example 62, 2-(2-cyclopropylmorpholin-4-yl)-6-(propan-2-yl)-4-({4-[(propan-2-yl)oxy]phenyl}amino)-5,6-dihydro-7H-pyrrolo[3,4-d]pyrimidin-7-one]
4.5 µM | CC(C)c1ccc(Nc2nc(N3CCO[C@H](C)C3)nc3c2CN(C(C)C)C3=O)cc1 [Example 7, 2-[(2R)-2-methylmorpholin-4-yl]-6-(propan-2-yl)-4-{[4-(propan-2-yl)phenyl]amino}-5,6-dihydro-7H-pyrrolo[3,4-d]pyrimidin-7-one]
3.78 µM | CC(C)N1Cc2c(Nc3ccc(C(F)(F)C(F)(F)F)cc3)nc(N3CCOC(C4CC4)C3)nc2C1=O (centres unmarked) [Example 58, 2-(2-cyclopropylmorpholin-4-yl)-4-{[4-(pentafluoroethyl)phenyl]amino}-6-(propan-2-yl)-5,6-dihydro-7H-pyrrolo[3,4-d]pyrimidin-7-one]
3.58 µM | CC(C)N1Cc2c(Nc3ccc(C4CCCCC4)cc3)nc(N3CCOC(CCO)C3)nc2C1=O (centres unmarked) [Example 27, 4-[(4-cyclohexylphenyl)amino]-2-[2-(2-hydroxyethyl)morpholin-4-yl]-6-(propan-2-yl)-5,6-dihydro-7H-pyrrolo[3,4-d]pyrimidin-7-one]
3.51 µM | CC(C)N1Cc2c(Nc3ccc(-c4ccc(Cl)cc4)cc3)nc(N3CCOCC3)nc2C1=O [Example 89, 4-[(4′-chloro[1,1′-biphenyl]-4-yl)amino]-2-(morpholin-4-yl)-6-(propan-2-yl)-5,6-dihydro-7H-pyrrolo[3,4-d]pyrimidin-7-one]
5.43 µM | CC(C)c1ccc(Nc2nc(N3C[C@H](C)O[C@@H](C)C3)nc3c2CN(C(C)C)C3=O)cc1 [Example 8, 2-[(2S,6S)-2,6-dimethylmorpholin-4-yl]-6-(propan-2-yl)-4-{[4-(propan-2-yl)phenyl]amino}-5,6-dihydro-7H-pyrrolo[3,4-d]pyrimidin-7-one]
0.518 µM | CC(C)N1Cc2c(Nc3ccc(C4CCCCC4)cc3)nc(-c3ccnc(C#N)c3)nc2C1=O [Example 41, 4-(4-((4-cyclohexylphenyl)amino)-6-isopropyl-7-oxo-6,7-dihydro-5H-pyrrolo[3,4-d]pyrimidin-2-yl)picolinonitrile]
2.3 µM | CCCCCc1ccc(Nc2nc(N3CCO[C@H](C)C3)nc3c2CN(C(C)C)C3=O)cc1 [Example 55, 2-[(2R)-2-methylmorpholin-4-yl]-4-[(4-pentylphenyl)amino]-6-(propan-2-yl)-5,6-dihydro-7H-pyrrolo[3,4-d]pyrimidin-7-one]
3.7 µM | C[C@@H]1CN(c2nc(Nc3ccc(C4CCC4)cc3)c3c(n2)C(=O)N(CCCN(C)C)C3)CCO1 [Example 74, 4-[(4-cyclobulylphenyl)amino]-6-[3-(dimethylamino)propyl]-2-[(2R)-2-methylmorpholin-4-yl]-5,6-dihydro-7H-pyrrolo[3,4-d]pyrimidin-7-one]
6.3 µM | CC(C)N1Cc2c(Nc3ccc(C4CCCCC4)cc3)nc(N(C)CCc3ccccn3)nc2C1=O [Example 37, 4-[(4-cyclohexylphenyl)amino]-2-{methyl[2-(pyridin-2-yl)ethyl]amino}-6-(propan-2-yl)-5,6-dihydro-7H-pyrrolo[3,4-d]pyrimidin-7-one]
2.01 µM | CC(C)N1Cc2c(Nc3ccc(C4CCCCC4)cc3)nc(N3CCOCC3)nc2C1=O [Example 11, 4-[(4-cyclohexylphenyl)amino]-2-(morpholin-4-yl)-6-(propan-2-yl)-5,6-dihydro-7H-pyrrolo[3,4-d]pyrimidin-7-one]
2.47 µM | C#CCCC1(CCOc2ccc(-c3ccc(Nc4nc(C5=CCOCC5)nc5c4CN(C(C)C)C5=O)cc3)cc2)N=N1 [Example 81, 4-((4′-(2-(3-(but-3-yn-1-yl)-3H-diazirin-3-yl)ethoxy)-[1,1′-biphenyl]-4-yl)amino)-2-(3,6-dihydro-2H-pyran-4-yl)-6-isopropyl-5,6-dihydro-7H-pyrrolo[3,4-d]pyrimidin-7-one]
0.672 µM | CC(C)N1Cc2c(Nc3ccc(C4CCCCC4)cc3)nc(N3CCOC(C4CC4)C3)nc2C1=O (centres unmarked) [Example 2, 4-((4-cyclohexylphenyl)amino)-2-(2-cyclopropylmorpholino)-6-isopropyl-5,6-dihydro-7H-pyrrolo[3,4-d]pyrimidin-7-one]
